This note sets out measurements from patent US7915282B2, “C2-phenyl-substituted cyclic keto-enols used as pesticides and herbicides” (Bayer Aktiengesellschaft, priority 2000, dated 2011).

What all share (format): in vivo
Assay [1] has as its system greenhouse red spider mite (Tetranychus urticae). As to the kind of experiment: Tetranychus test (OP-resistant/dip treatment). The following applies: active compound concentration of 1000 ppm; after 7 days; infested bean plants dipped. Here is the method:
[table] To produce a suitable preparation of active compound, 1 part by weight of active compound is mixed with the stated amounts of solvent and emulsifier, and the concentrate is diluted with emulsifier-containing water to the desired concentration. Bean plants (Phaseolus vulgaris) which are heavily infested by all stages of the greenhouse red spider mite (Tetranychus urticae) are dipped into a preparation of active compound of the desired concentration. After the desired period of time, the effect in % is determined. 100% means that all spider mites have been killed; 0% means that none of the spider mites have been killed.

The test system of assay [2] is Bromus. Description: Pre-emergence test. The settings on record: 125 g ai/ha, after three weeks. The method, then: (§1) [table] To produce a suitable preparation of active compound, 1 part by weight of active compound is mixed with the stated amount of solvent, the stated amount emulsifier is added and the concentrate is diluted with water to the desired concentration. Seeds of the test plants are sown in normal soil. After about 24 hours, the soil is sprayed with the preparation of active compound such that the particular amounts of active compound desired are applied per unit area. The concentration of the spray liquor is chosen such that the particular amounts of active compound desired are applied in 1000 l of water/ha. After three weeks, the degree of damage to the plants is rated in % damage in comparison to the development of the untreated controls. The figures denote: [table]

Assay [3] relates to Digitaria. Description: Pre-emergence test. The following applies: 125 g ai/ha, after three weeks. The method, then: as §1
The test system of assay [4] is Setaria. As to the kind of experiment: Pre-emergence test. The following applies: 125 g ai/ha, after three weeks. Here is the method: as §1
The subject of assay [5] is Cyperus. Description: Pre-emergence test. The settings on record: 125 g ai/ha, after three weeks. The method, then:
as §1

Assay [6] has as its system Soya bean. Description: Pre-emergence test. The settings on record: 125 g ai/ha, after three weeks. The method, then: as §1
Assay [7] relates to Abutilo. As to the kind of experiment: Pre-emergence test. The settings on record: 125 g ai/ha, after three weeks. The method, then:
as §1

Assay [8] concerns Alopecurus. As to the kind of experiment: Pre-emergence test. The following applies: 125 g ai/ha, after three weeks. The method, then: as §1
Assay [9] relates to Lolium. As to the kind of experiment: Pre-emergence test. The following applies: 125 g ai/ha, after three weeks. Here is the method: as §1
The subject of assay [10] is Digitaria. As to the kind of experiment: Post-emergence test. The following applies: after three weeks. The method, then:
(§2) [table] To produce a suitable preparation of active compound, 1 part by weight of active compound is mixed with the stated amount of solvent, the stated amount of emulsifier is added and the concentrate is diluted with water to the desired concentration. Test plants of a height of 5-15 cm are sprayed with the preparation of active compound such that the particular amounts of active compound desired are applied per unit area. The concentration of the spray liquor is chosen such that the particular amount of active compound desired is applied in 1000 l of water/ha. After three weeks, the degree of damage to the plants is rated in % damage in comparison to the development of the untreated control. The figures denote: [table]

The test system of assay [11] is Setaria. Description: Post-emergence test. The settings on record: after three weeks. The method, then: as §2
Assay [12] has as its system Polygonum. As to the kind of experiment: Post-emergence test. The settings on record: 60 g ai/ha, after three weeks. Here is the method:
as §2

Assay [13] relates to Sugar beet. As to the kind of experiment: Post-emergence test. The following applies: after three weeks. The method, then:
as §2

The subject of assay [14] is Avena fatua. Description: Post-emergence test. The settings on record: after three weeks. Here is the method:
as §2

Assay [15] has as its system Alopecurus. Description: Post-emergence test. The following applies: after three weeks. Here is the method: as §2
The test system of assay [16] is peach aphids (Myzus persicae). Description: Myzus test. The settings on record: active compound concentration of 1000 ppm; after 6 days; infested cabbage leaves dipped. Here is the method: [table] To produce a suitable preparation of active compound, 1 part by weight of active compound is mixed with the stated amounts of solvent and emulsifier, and the concentrate is diluted with emulsifier-containing water to the desired concentration. Cabbage leaves (Brassica oleracea) which are heavily infested by the peach aphids (Myzus persicae) are treated by being dipped into the preparation of active compound of the desired concentration. After the desired period of time, the kill in % is determined. 100% means that all aphids have been killed; 0% means that none of the aphids have been killed.

Assay [17] has as its system larvae of the mustard beetle (Phaedon cochleariae). As to the kind of experiment: Phaedon larvae test. The following applies: active compound concentration of 1000 ppm; after 7 days; cabbage leaves dipped. The method, then: [table] To produce a suitable preparation of active compound, 1 part by weight of active compound is mixed with the stated amounts of solvent and emulsifier, and the concentrate is diluted with emulsifier-containing water to the desired concentration. Cabbage leaves (Brassica oleracea) are treated by being dipped into the preparation of active compound of the desired concentration and are populated with larvae of the mustard beetle (Phaedon cochleariae) while the leaves are still moist. After the desired period of time, the kill in % is determined. 100% means that all beetle larvae have been killed; 0% means that none of the beetle larvae have been killed.

Assay [18] concerns Veronica. As to the kind of experiment: Pre-emergence test. The settings on record: 125 g ai/ha, after three weeks. Here is the method:
as §1

In assay [19] the test system is Sugar beet. As to the kind of experiment: Pre-emergence test. The settings on record: 125 g ai/ha, after three weeks. The method, then:
as §1

The subject of assay [20] is Ipomoea. As to the kind of experiment: Post-emergence test. The following applies: 125 g ai/ha, after three weeks. The method, then: as §2
In assay [21] the test system is Lolium. Description: Post-emergence test. The following applies: 125 g ai/ha, after three weeks. The method, then: as §2

Turning to `C#Cc1cc(C)c(C2=C(OC(=O)OCC)C3(CCC(OC)CC3)NC2=O)c(C)c1` (centres unmarked) [Example I-1-c-4], the kill in % in [1] and in assay [16] was 100% each time. Further, the “% damage Bromus” value in assay [2] stood at 100%. For the same compound, the “% damage Digitaria” value is given as 100% in assay [3] and 95% in assay [10] (60 g ai/ha). Besides, the “% damage Setaria” value in assay [4] and in assay [11] (60 g ai/ha) was 100% each time. Moreover, the “% damage Cyperus” value in [5] was determined as 100%. For the same compound, the “% damage Soya bean” value in assay [6] was 20%. In assay [7], the “% damage Abutilo” value is listed as 70%. The “% damage Alopecurus” value in [8] was 95%; in assay [15] (60 g ai/ha) it was 90%. Besides, in assay [9], the “% damage Lolium” value is on record as 100%. Further, in assay [12], the “% damage Polygonum” value is on record as 70%. The “% damage Sugar beet” value in assay [13] (60 g ai/ha) was determined as 10%. The “% damage Avena fatua” value in assay [14] (60 g ai/ha) worked out at 90%.

For the compound `C#Cc1cc(C)c(C2=C(O)C3(CCC(OC)CC3)NC2=O)c(C)c1` (centres unmarked) [Example I-1-a-21], the kill in % in assay [17] and in [1] was 100% throughout. For the same compound, the “% damage Digitaria” value in assay [3] and in assay [10] (125 g ai/ha) was 100% in each case. Also, the “% damage Setaria” value in [4] was determined as 100%; in assay [11] (125 g ai/ha), 99%. The “% damage Veronica” value in assay [18] is recorded as 100%. Moreover, the “% damage Sugar beet” value in assay [19] and in assay [13] (125 g ai/ha) was 0% throughout. For the same compound, the “% damage Soya bean” value in [6] turned out to be 0%. Besides, the “% damage Alopecurus” value in assay [8] and in assay [15] (125 g ai/ha) was 100% in each case. Also, the “% damage Lolium” value in assay [9] was determined as 100%; in assay [21] it was 95%. In addition, the “% damage Ipomoea” value in assay [20] turned out to be 70%. The “% damage Avena fatua” value in assay [14] (125 g ai/ha) was found to be 90%.
